# Assay results published in patent US9763901B2 (priority 2015, dated 2017).
# How the values were obtained:
# HCV GT1B Replicon = assay: HCV replicon assay (antiviral, luciferase endpoint); type: cell-based, hepatitis C virus
# Excerpt: (§1) Stable HCV replicons of different genotypes may be used for anti-HCV evaluation. We use the subgenomic HCV replicons of genotype 1a (H77 strain), 1b (Conl strain), and 2a (JFH-1 strain), which are Huh7 human hepatoma cell lines that contains an HCV replicon.
# The HCV replicon antiviral evaluation assay examines the effects of compounds at six serial dilutions. Human interferon alpha-2b (rIFNα-2b) and/or Sofosbuvir are included in each run as a positive control compound.
# (§2) Briefly, the replicon cells are plated at 5,000 cells/well into 96-well plates that are dedicated for the analysis of cell numbers (cytotoxicity) or antiviral activity. On the following day, samples are diluted with assay media and added to the appropriate wells. Cells are processed 72 hours later when the cells are still sub-confluent. For the luciferase endpoint assay, HCV replicon levels are assessed as replicon-derived L uc activity. The concentration of drug that reduces cell viability is assessed by the fluorometric CytoTox-1 cell proliferation assay (Promega), (expressed as cell numbers). For the qRT-PCR/TaqMan assay, total RNA is extracted from the replicon cells using RNeasy 96 kit (Qiagen) according to the manufacturer's protocol. Real-time RTPCR/TaqMan assays are performed to measure copy numbers of the replicon RNA and cellular ribosomal RNA. Where applicable EC50 (concentration inhibiting HCV replicon by 50%), EC90 (concentration inhibiting HCV replicon by 90%), CC50 (concentration decreasing cell viability by 50%), CC90 (concentration decreasing cell viability by 90%) and SI (selectivity indices: CC50/EC50 and CC90/EC90) values are derived.
# [1] = Cytotoxicity in HCVcc assay (CytoTox-1); type: cell-based; settings: human, Huh7.5 cells infected with cell culture-derived HCV (HCVcc), In vitro HCV cc assay, read-out: CC50 (concentration decreasing cell viability by 50%)
# Experimental: (§3) Huh7.5 cells are grown in Dulbecco's modified essential media (DMEM), 10% fetal bovine serum (FBS), 1% penicillin-streptomycin (pen-strep), 1% Non-essential amino acids (NEAA) in a 5% CO2 incubator at 37° C. Huh7.5 cells are seeded at 1×10^4 cells per well into 96-well plates according to Southern Research Institute standard format. Test articles are serially diluted with DMEM plus 5% FBS. The diluted compound in the amount of 50 μl is mixed with equal volume of cell culture-derived HCV (HCVcc), then applied to appropriate wells in the plate. Human interferon alpha-2b (rIFNα-2b) and/or Sofosbuvir are included as a positive control. After 72 hr incubation at 37° C., the cells are lysed for measurement of luciferase activity using Renilla Luciferase Assay System (Promega) according to manufacturer's instruction. The number of cells in each well is determined by CytoTox-1 reagent (Promega). Test articles are tested at 6 serial dilutions in triplicate to derive, if applicable, EC50 and EC90 (concentration inhibiting HCVcc infectivity by 50% and 90%, respectively), CC50 (concentration decreasing cell viability by 50%) and SI (selectivity index: CC50/EC50) values (Table 1).
# [2] = test system: cell culture-derived HCV (HCVcc); assay: microbe, parasite or virus in culture; type: cell-based, hepatitis C virus
# Experimental: as §3
# [3] = Cytotoxicity in HCV replicon cells (CytoTox-1); type: cell-based; settings: human, Huh7 hepatoma cells containing a subgenomic HCV replicon, In vitro HCV replicon assay, post infection, read-out: CC50 (concentration decreasing cell viability by 50%)
# Experimental: as §1
# as §2, with “Where applicable EC50 (concentration inhibiting HCV replicon by 50%), EC90 (concentration inhibiting HCV replicon by 90%), CC50 (concentration decreasing cell viability by 50%), CC90 (concentration decreasing cell viability by 90%) and SI (selectivity indices: CC50/EC50 and CC90/EC90) values are derived.” left out
smiles,measurement,setting,value
CCCCOc1ccc(CC(=O)NO)cc1 [Bufexamac],anti-hepatitis C activity (in words),HCV GT1B Replicon; HCV replicon assay,significant anti-hepatitis C activity
same,EC50,"HCV GT1B Replicon; Hepatitis C virus, GT1B, 72 h, read-out: EC50 (concentration inhibiting HCV replicon by 50%)",11.3 µM
same,Selectivity index (CC50/EC50),HCV GT1B Replicon; In vitro HCV replicon assay,>8.85
same,CC50 at 72 h,[1],100 µM
same,EC50,"[2]; Hepatitis C virus, Huh7.5, 72 h, read-out: EC50 (concentration inhibiting HCVcc infectivity by 50%)",10.2 µM
same,Selectivity index (CC50/EC50),[2]; In vitro HCV cc assay,9.80
same,anti-hepatitis C activity (in words),[2]; hepatitis C viral infectivity assay,significant anti-hepatitis C activity
same,CC50 at 72 h,[3],> 100 µM
